{"source": "patent US20140127269A1", "about": "“Anti-Inflammatory Peptide Derived From Thrombospondin-1 and Uses Thereof” (THE SCHEPENS EYE RESEARCH INSTITUTE, INC., priority 2012, published 2014)", "key": {"[1]": {"system": "CD4+CD25− T cells", "test": "Treg induction from anti-CD3-activated CD4+CD25- T cells in vitro (flow cytometry, TGFbeta ELISA)", "format": "cell-based", "method": "Purified CD4+CD25− T cells were stimulated with plate-bound anti-CD3 antibody for 48 hr at 37 degrees C. in the presence of 10 microM TSP-peptide or control peptide. Activated T cells were washed and subjected to 2 cycles of amplification, 48 hr each, in the presence of T cell growth factor IL-2 (50 U/ml). Proliferated T cells were then stained using fluorochrome-conjugated antibodies to label surface CD4 and CD25 and intracellular Foxp3. Stained cells were analyzed using a flow cytometer. Culture supernatants collected from cells after initial 48 hr culture were tested for the content of TGFbeta using an ELISA."}, "[2]": {"system": "CD4+ T cells derived from the spleen and lymph node", "test": "Treg and inflammatory effector cells in ova/CFA-immunized mice (flow cytometry)", "format": "in vivo", "conditions": "10 μg on day 1, 3 and 5 post-immunization, analysed day 7; compared to control peptide", "method": "To determine if such an expansion of Treg cells by TSP-peptide is possible in vivo, and whether it can reduce the typical IL-17 or IFNγ-producing inflammatory effectors, mice were immunized with an ovalbumin (ova) antigen in Complete Freund's Adjuvant (CFA). This is a commonly used experimental approach to generate antigen-specific inflammatory effectors. These ova-immunized mice were treated with either control or TSP-peptide (10 μg; SEQ ID NO:1) on day 1, 3 and 5 post-immunization. On day 7 post-immunization, the CD4+ T cells derived from the spleen and lymph node of these mice were analyzed by flow cytometry to determine the numbers of Foxp3+ Treg cells and the expression patterns of the inflammatory cytokines, IL-17 and […].\nLymph nodes were harvested from immunized mice treated with either control or TSP-peptide 7 days post-immunization. Lymph node cells were cultured in the presence of PMA (10 ng/ml), ionomycin (200 ng/ml) and Brefeldin A for 20 hr at 37 degrees C. Cell surface CD4 and CD25 and intracellular Foxp3, IFNgamma and IL-17 were detected using fluorochrome-conjugated antibodies followed by flow cytometric analysis."}, "[3]": {"system": "experimental mouse model of autoimmune uveitis (IRBP-immunized mice)", "test": "Experimental autoimmune uveitis, topical peptide treatment, clinical disease score and lymph node Th17/Treg transcription factor message", "format": "in vivo, C57BL/6 mice", "conditions": "for disease severity / ocular inflammation (clinical disease score): topical 10 microgram per mouse (5 microgram per eye) once per day, day 1 to 7, scored for 26 days, compared to control peptide", "method": "(§1) The expansion of Treg cells and the reduction of inflammatory effector cells was evaluated in an experimental mouse model of autoimmune uveitis to determine if the TSP-1 peptide reduced disease severity. […] The inflammatory response in the retina is monitored and scored regularly on the basis of severity by examining the fundus.\nFor topical administration, 10 microgram per mouse (5 microgram per eye) was administered for the duration of 7 days. TSP peptide was administered topically once per day for 7 days post-immunization with IRBP-CFA. 1 microgram per microliter solution was used for the eye drops, i.e., 0.1% solution used as 5 microliter per eye resulting in total 10 microliter (10 microgram) per mouse. A liquid formulation was used in topical application as well as when peptide was administered intraperitoneally.\nC57BL/6 mice were immunized subcutaneously, on day 0, with 200 microgram IRBP in complete Freund's adjuvant per mouse followed by i.p. injection of Pertussis toxin (0.1 microgram). From day 1 to day 7 pos-immunization total 10 microgram of control or TSP-peptide was administered topically (5 micrograms/5 microliters per eye). Clinical disease score was recorded for the 26 days post-immunization."}, "[4]": {"system": "experimental mouse model of autoimmune uveitis (IRBP-immunized mice)", "test": "Experimental autoimmune uveitis, i.p. peptide treatment, clinical disease score", "format": "in vivo, C57BL/6 mice", "conditions": "i.p. 10 microgram on day 1, 3 and 5 post-immunization; scored for 26 days; compared to control peptide", "method": "as §1\nC57BL/6 mice were immunized subcutaneously, on day 0, with 200 microgram IRBP in complete Freund's adjuvant per mouse followed by i.p. injection of Pertussis toxin (0.1 microgram). On day 1, 3 and 5 post-immunization mice received i.p. injection of 10 microgram of either control or TSP-peptide. Clinical disease score was recorded for the 26 days post-immunization."}, "[5]": {"conditions": "topical treatment, relative to control peptide"}}}
{"sequence": "KRFYVVMWKK (listed as Homo sapiens) [4N1K, 4N1 flanked with 2 Lys residues]", "values": [{"measurement": "number of cells expressing Foxp3 and CD25", "setting": "[1]; 10 microM peptide, 48 hr anti-CD3 activation, then 2 cycles IL-2, compared to control peptide (4NGG)", "value": "significantly increased"}, {"measurement": "synthesis of immunosuppressive cytokine TGF-β1", "setting": "[1]; 10 microM peptide, culture supernatant after initial 48 hr, ELISA", "value": "increased"}, {"measurement": "induction of Treg cells in vitro", "setting": "[1]; in vitro", "value": "effectively induces Treg cells"}, {"measurement": "numbers of Foxp3-expressing Treg cells", "setting": "[2]", "value": "increased numbers"}, {"measurement": "numbers of IFN-γ-expressing CD4 effectors", "setting": "[2]", "value": "reduced numbers"}, {"measurement": "numbers of IL-17-expressing CD4 effectors", "setting": "[2]", "value": "reduced numbers"}, {"measurement": "disease severity / ocular inflammation (clinical disease score)", "setting": "[3]", "value": "significantly reduced"}, {"measurement": "disease severity / ocular inflammation (clinical disease score)", "setting": "[3]; listed as TSP-1 peptide", "value": "reduction of ocular inflammation"}, {"measurement": "anti-inflammatory Treg cells in the lymph nodes (transcriptional factor message)", "setting": "[3]; [5]", "value": "enhancement"}, {"measurement": "pro-inflammatory Th17 cells in the lymph nodes (transcriptional factor message)", "setting": "[3]; [5]", "value": "decline"}, {"measurement": "disease severity (clinical disease score)", "setting": "[4]", "value": "significantly reduced"}]}
